# Data as given in patent US10689357B2, “N-acylethanolamine hydrolyzing acid amidase (NAAA) inhibitors and use thereof” (Northeastern University, priority 2018, dated 2020).
# Target: hNAAA (Homo sapiens (Human), UniProt Q02083)
# Assay: NAAA fluorescence-based inhibition assay with PAMCA substrate
# Assay type: biochemical
# Conditions: purified activated hNAAA, PAMCA 5 μM, pH 4.5, 37° C.
# Source text: In order to have an assay method more conducive to high-throughput screening than those published for measuring the NAE hydrolyzing activity of NAAA [Proc. Natl. Acad. Sci. USA. 2009; 106(49):20966-71], the fluorogenic PEA analog N-(4-methyl coumarin)palmitamide (PAMCA), which is hydrolyzed to fluorescent 7-amino-4-methyl coumarin (AMC) and palmitic acid, was developed. [J. Proteome Res. 2012; 11(2):972-981], [PloS One. 2012; 7: e43877]. For three point concentration inhibition assays with hNAAA the following procedure was used. Purified activated NAAA (final concentration of 0.25 μg/mL) was incubated in assay buffer (100 mM citrate-phosphate buffer, pH 4.5, 3 mM DTT, 0.1% Triton X-100, 0.05% BSA, and 150 mM NaCl) made up to a total volume of 180 μL, followed by addition of the compound dissolved in 10 μL DMSO (along with DMSO neat for the control sample) with the final concentrations for each compound of 100, 10, and 1 μM, in triplicate on a 96 well plate. These samples were allowed to incubate for 15 min at room temperature and then 10 μL of a PAMCA stock solution in DMSO (final PAMCA concentration [5 μM]) was added. After 5 minutes of agitation on a shaking plate, the reaction was allowed to proceed at 37° C. for 120 minutes, with fluorescence readings taken every 10 minutes at a wavelength of 460 nm (using an excitation wavelength of 360 nm) on a Synergy HT Plate Reader using Gen5 software from Bio-Tek. The enzyme activity was calculated by converting the relative fluorescence units to AMC formed, using a standard curve of AMC.
# For compounds that inhibit hNAAA in range IC50<1 μM, full inhibition curves using eight different concentrations of inhibitor (8 point assay) were generated. The assay procedure used was the same as the three point assay. For ostensibly covalent compounds (as observed by a significant decrease in the slope of a plot of fluorescence vs. time in three point screen), samples were allowed to incubate for 2 hours at 37° C., instead of 15 minutes, before addition of 10 μL of a PAMCA stock solution in DMSO for a final PAMCA concentration of 5 μM. After 5 minutes of agitation on a shaking plate, the reaction was allowed to proceed at 37° C. for 120 minutes. Inhibition constants were calculated using pro Fit software (Quantum Soft, Uetikon am See, Switzerland) and a Levenberg-Marquardt algorithm.
# Sequence of hNAAA (Q02083 29-125): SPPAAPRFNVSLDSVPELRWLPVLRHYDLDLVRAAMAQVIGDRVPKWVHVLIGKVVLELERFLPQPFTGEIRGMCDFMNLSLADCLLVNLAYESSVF
# Sequence of hNAAA (Q02083 126-359): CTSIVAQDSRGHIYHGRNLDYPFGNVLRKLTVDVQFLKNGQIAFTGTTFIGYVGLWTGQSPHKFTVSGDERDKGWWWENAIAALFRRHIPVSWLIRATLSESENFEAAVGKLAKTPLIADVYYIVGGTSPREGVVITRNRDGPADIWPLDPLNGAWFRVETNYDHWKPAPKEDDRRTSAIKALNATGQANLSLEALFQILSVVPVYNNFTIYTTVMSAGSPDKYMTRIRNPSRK
row,Molecule,IC50 [nM]
1,"COc1ccc(-c2ccc(S(=O)(=O)O[C@H]3C[C@@H](N=C=S)C3)cc2)cc1 [Example 27, (1s, 3 s)-3-Isothiocyanatocyclobutyl 4′-methoxy-[1,1′-biphenyl]-4-sulfonate]",10 to 100
2,"COc1ccc(-c2ccc(C(=O)N[C@H]3C[C@@H](N=C=S)C3)nc2)nc1 [Example 34, N-(cis-(3-Isothiocyanatocyclobutyl))-5-methoxy-[2,3′-bipyridine]-6′-carboxamide]",10 to 100
3,"COc1ccc2cc(C(=O)N[C@H]3C[C@@H](N=C=S)C3)ccc2c1 [Example 10, N-((1s, 3 s)-3-Isothiocyanatocyclobutyl)-6-methoxy-2-naphthamide]",> 1000
4,"COc1ccc(-c2ccc(C(=O)N[C@H]3C[C@@H](N=C=S)C3)nc2)cc1F [Example 19, 5-(3-Fluoro-4-methoxyphenyl)-N-((1r, 3r)-3-isothiocyanatocyclobutyl) picolinamide]",10 to 100
5,"(1r, 3r)-3-Isothiocyanatocyclobutyl 5-(4-methoxyphenyl)picolinate [Example 21]",10 to 100
6,"N#Cc1ccc(-c2ccc(C(=O)N[C@H]3C[C@@H](N=C=S)C3)nc2)cc1 [Example 23, 5-(4-cyanophenyl)-N-((1r, 3r)-3-Isothiocyanatocyclobutyl)picolinamide]",110 to 1000
7,"COc1ccc(-c2ccc(S(=O)(=O)N[C@H]3C[C@@H](N=C=S)C3)cc2)cc1F [Example 30, 3′-Fluoro-N-((1s,3s)-3-isothiocyanatocyclobutyl)-4′-methoxy-[1,1′-biphenyl]-4-sulfonamide]",10 to 100
8,"O=C(N[C@H]1C[C@@H](N=C=S)C1)c1ccc(N2CCOCC2)cc1 [Example 5, N-((1r, 3r)-3-Isothiocyanatocyclobutyl)-4-morpholinobenzamide]",> 1000
